# From patent publication US10597388B2, “Pyridazinone herbicides” (FMC CORPORATION, priority 2014, dated 2020)
# How the values were obtained:
# Test in all cases: Test D controlled growth environment herbicide test, pre- and postemergence
# Format in all cases: in vivo
# [1] = system: barley, winter (winter barley, Hordeum vulgare)
# In short: (§1)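 Rating is visual, 0–100 scale (100 = complete control), made against untreated plants 14–21 d after treatment in controlled growth conditions. Postemergence sprays went onto 1- to 4-leaf plants in peat medium; preemergence sprays onto silt loam after sowing; formulation included a surfactant.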
# [2] = system: wheat, spring (spring wheat, Triticum aestivum)
# In short: as §1
# [3] = system: barley, spring (spring barley, Hordeum vulgare)
# In short: as §1
# [4] = system: oilseed rape (Brassica napus)
# In short: as §1
# [5] = system: galium (catchweed bedstraw, Galium aparine)
# In short: as §1
# [6] = system: canarygrass (Phalaris minor)
# In short: as §1
# [7] = system: bluegrass (annual bluegrass, Poa annua)
# In short: as §1
# [8] = system: foxtail, green (green foxtail, Setaria viridis)
# In short: as §1
# [9] = system: oat, wild (wild oat, Avena fatua)
# In short: as §1
# [10] = system: pigweed (Amaranthus retroflexus)
# In short: as §1
# [11] = system: field poppy (Papaver rhoeas)
# In short: as §1
# [12] = system: buckwheat, wild (wild buckwheat, Polygonum convolvulus)
# In short: as §1
# [13] = system: mustard, wild (wild mustard, Sinapis arvensis)
# In short: as §1
# [14] = Postemergence, 31 g ai/ha, scale 0 to 100 (0 no effect, 100 complete control)
# [15] = Postemergence, 125 g ai/ha, visual rating on scale 0 (no effect) to 100 (complete control), 14 to 21 d
# [16] = Postemergence, 250 g ai/ha, scale 0 to 100 (0 no effect, 100 complete control)
# [17] = Preemergence, 62 g ai/ha, scale 0 to 100 (0 no effect, 100 complete control)
# [18] = Preemergence, 125 g ai/ha, scale 0 to 100 (0 no effect, 100 complete control)
# [19] = Preemergence, 250 g ai/ha, scale 0 to 100, 0 no effect, 100 complete control
# [20] = postemergence, 62 g ai/ha, scale 0 to 100, 0 no effect, 100 complete control
smiles,measurement,setting,value
CCc1sc2c(C)cc(C)cc2c1-c1c(O)c(C)nn(C)c1=O [Compound 57],"Barley, Winter plant response rating",[1]; [14],20
same,"Plant response rating, Barley, Winter",[1]; [15],25
same,"Plant response rating, Barley, Winter",[1]; [16],25
same,"Plant response rating (scale of 0 to 100), Barley, Winter","[1]; Preemergence, 31 g ai/ha",0
same,"Plant response rating, Barley, Winter",[1]; [17],0
same,"Plant response rating, Barley, Winter",[1]; [18],5
same,"Plant response rating, Barley, Winter",[1]; [19],5
same,"Plant response rating, Barley, Winter",[1]; [20],30
same,"Wheat, Spring plant response rating",[2]; [14],0
same,"Plant response rating, Wheat, Spring",[2]; [15],10
same,"Plant response rating, Wheat, Spring",[2]; [16],10
same,"Plant response rating (scale of 0 to 100), Wheat, Spring","[2]; Preemergence, 31 g ai/ha",5
same,"Plant response rating, Wheat, Spring",[2]; [17],5
same,"Plant response rating, Wheat, Spring",[2]; [18],5
same,"Plant response rating, Wheat, Spring",[2]; [19],10
same,"Plant response rating, Wheat, Spring",[2]; [20],10
same,"Barley, Spring plant response rating",[3]; [14],10
same,"Plant response rating, Barley, Spring",[3]; [15],10
same,"Plant response rating, Barley, Spring",[3]; [16],10
same,"Plant response rating (scale of 0 to 100), Barley, Spring","[3]; Preemergence, 31 g ai/ha",5
same,"Plant response rating, Barley, Spring",[3]; [17],10
same,"Plant response rating, Barley, Spring",[3]; [18],10
same,"Plant response rating, Barley, Spring",[3]; [19],10
same,"Plant response rating, Barley, Spring",[3]; [20],10
same,Oilseed Rape plant response rating,[4]; [14],20
same,"Plant response rating, Oilseed Rape",[4]; [15],65
same,"Plant response rating, Oilseed Rape",[4]; [16],65
same,"Plant response rating (scale of 0 to 100), Oilseed Rape","[4]; Preemergence, 31 g ai/ha",0
same,"Plant response rating, Oilseed Rape",[4]; [17],0
same,"Plant response rating, Oilseed Rape",[4]; [18],0
same,"Plant response rating, Oilseed Rape",[4]; [19],25
same,"Plant response rating, Oilseed Rape",[4]; [20],25
same,Galium plant response rating,[5]; [14],90
same,"Plant response rating, Galium",[5]; [15],90
same,"Plant response rating, Galium",[5]; [16],98
same,"Plant response rating (scale of 0 to 100), Galium","[5]; Preemergence, 31 g ai/ha",85
same,"Plant response rating, Galium",[5]; [17],100
same,"Plant response rating, Galium",[5]; [18],100
same,"Plant response rating, Galium",[5]; [19],100
same,"Plant response rating, Galium",[5]; [20],90
same,Canarygrass plant response rating,[6]; [14],5
same,"Plant response rating, Canarygrass",[6]; [15],15
same,"Plant response rating, Canarygrass",[6]; [16],25
same,"Plant response rating (scale of 0 to 100), Canarygrass","[6]; Preemergence, 31 g ai/ha",0
same,"Plant response rating, Canarygrass",[6]; [17],10
same,"Plant response rating, Canarygrass",[6]; [18],55
same,"Plant response rating, Canarygrass",[6]; [19],65
same,"Plant response rating, Canarygrass",[6]; [20],5
same,Bluegrass plant response rating,[7]; [14],5
same,"Plant response rating, Bluegrass",[7]; [15],15
same,"Plant response rating, Bluegrass",[7]; [16],15
same,"Plant response rating (scale of 0 to 100), Bluegrass","[7]; Preemergence, 31 g ai/ha",0
same,"Plant response rating, Bluegrass",[7]; [17],20
same,"Plant response rating, Bluegrass",[7]; [18],25
same,"Plant response rating, Bluegrass",[7]; [19],65
same,"Plant response rating, Bluegrass",[7]; [20],15
same,"Foxtail, Green plant response rating",[8]; [14],75
same,"Plant response rating, Foxtail, Green",[8]; [15],75
same,"Plant response rating, Foxtail, Green",[8]; [16],90
same,"Plant response rating (scale of 0 to 100), Foxtail, Green","[8]; Preemergence, 31 g ai/ha",10
same,"Plant response rating, Foxtail, Green",[8]; [17],70
same,"Plant response rating, Foxtail, Green",[8]; [18],100
same,"Plant response rating, Foxtail, Green",[8]; [19],100
same,"Plant response rating, Foxtail, Green",[8]; [20],75
same,"Oat, Wild plant response rating",[9]; [14],15
same,"Plant response rating, Oat, Wild",[9]; [15],65
same,"Plant response rating, Oat, Wild",[9]; [16],85
same,"Plant response rating (scale of 0 to 100), Oat, Wild","[9]; Preemergence, 31 g ai/ha",15
same,"Plant response rating, Oat, Wild",[9]; [17],30
same,"Plant response rating, Oat, Wild",[9]; [18],50
same,"Plant response rating, Oat, Wild",[9]; [19],60
same,"Plant response rating, Oat, Wild",[9]; [20],25
same,Pigweed plant response rating,[10]; [14],85
same,"Plant response rating, Pigweed",[10]; [15],100
same,"Plant response rating, Pigweed",[10]; [16],100
same,"Plant response rating (scale of 0 to 100), Pigweed","[10]; Preemergence, 31 g ai/ha",70
same,"Plant response rating, Pigweed",[10]; [17],75
same,"Plant response rating, Pigweed",[10]; [18],98
same,"Plant response rating, Pigweed",[10]; [19],100
same,"Plant response rating, Pigweed",[10]; [20],85
same,Field Poppy plant response rating,[11]; [14],100
same,"Plant response rating, Field Poppy",[11]; [15],100
same,"Plant response rating, Field Poppy",[11]; [16],100
same,"Plant response rating (scale of 0 to 100), Field Poppy","[11]; Preemergence, 31 g ai/ha",100
same,"Plant response rating, Field Poppy",[11]; [17],100
same,"Plant response rating, Field Poppy",[11]; [18],100
same,"Plant response rating, Field Poppy",[11]; [19],100
same,"Plant response rating, Field Poppy",[11]; [20],100
same,"Buckwheat, Wild plant response rating",[12]; [14],80
same,"Plant response rating, Buckwheat, Wild",[12]; [15],85
same,"Plant response rating, Buckwheat, Wild",[12]; [16],100
same,"Plant response rating (scale of 0 to 100), Buckwheat, Wild","[12]; Preemergence, 31 g ai/ha",0
same,"Plant response rating, Buckwheat, Wild",[12]; [17],10
same,"Plant response rating, Buckwheat, Wild",[12]; [18],10
same,"Plant response rating, Buckwheat, Wild",[12]; [19],100
same,"Plant response rating, Buckwheat, Wild",[12]; [20],85
same,"Mustard, Wild plant response rating",[13]; [14],30
same,"Plant response rating, Mustard, Wild",[13]; [15],30
same,"Plant response rating, Mustard, Wild",[13]; [16],40
same,"Plant response rating (scale of 0 to 100), Mustard, Wild","[13]; Preemergence, 31 g ai/ha",0
same,"Plant response rating, Mustard, Wild",[13]; [17],25
same,"Plant response rating, Mustard, Wild",[13]; [18],25
same,"Plant response rating, Mustard, Wild",[13]; [19],30
same,"Plant response rating, Mustard, Wild",[13]; [20],30
